These results are taken from patent US10899795B2, “Modified epitopes for boosting CD4+ T-cell responses” (Katholieke Universiteit Leuven, priority 2012, dated 2021).

Entries after “also recorded” stand apart in the source; their conditions may differ.

Assay [1] has as its system p21-35 (SEQ ID NO:3)-specific CD4+ T cell clone. In words: Proliferation of Der p2 p21-35-specific CD4+ T cell clone with peptide-loaded antigen-presenting cells (3H-thymidine incorporation). Type of assay: cell-based, BALB/c mice. The conditions noted are these: peptide 0.1 μM loaded on T cell-depleted mitomycin C-treated splenocytes; compared with p21-35 wildtype sequence (SEQ ID NO:3); 48 h + 18 h 3H-thymidine.

Assay [2] is described as follows: Direct binding ELISA of antibodies in blood of immunized BO2C11 BCR mice. It counts as in vivo. The conditions noted are these: mice immunized with 50 μg peptide on alum on 4 occasions at 10-day intervals. The source says:
(§1) A mouse strain was created which expresses the BO2C11 molecule as a B cell receptor. […] Mice were then bled and tested for the presence of antibodies recognizing the peptide of SEQ ID NO:10 and the BO2C11 antibody, as assess by direct binding ELISA.
Background: An ELISA detects its analyte on a solid surface through an enzyme-linked reagent.

A further assay concerns BO2C11 antibody. The description is as above. It counts as in vivo. To be noted: mice immunized with 50 μg peptide on alum on 4 occasions at 10-day intervals.
Source text: as §1

The test system of assay [3] is B cells expressing the BO2C11 BCR. In words: FACS for BO2C11 BCR on circulating, splenic and bone marrow B cells of immunized mice. Type of assay: in vivo. On the procedure:
A mouse strain was created which expresses the BO2C11 molecule as a B cell receptor. […] Mice were then bled and tested for the presence of antibodies recognizing the peptide of SEQ ID NO:10 and the BO2C11 antibody, as assess by direct binding ELISA. […] Furthermore, the presence of the BO2C11 BCR on circulating, splenic and bone marrow B cells was evaluated by FACS using an anti-human Fc-gamma antibody.

In another assay the test system is CD4+ T cells. The assay is described as follows: Proliferation of CD4+ T cells stimulated with ALK peptide-loaded dendritic cells (tritiated thymidine incorporation). To be noted: four cycles of stimulation with 20 μg peptide; restimulation with 1 μM or 10 μM peptide of SEQ ID NO:14; compared with stimulation by SEQ ID NO:14. Type of assay: cell-based, C57BL/6 mice. (In general: Uptake of a labelled nucleoside into DNA is a usual measure of proliferation.)

In the next assay the test system is G121 CD4+ T cell clone. In words: FACS detection of CFSE-labeled G121 CD4+ T cell clone in immunized mice. It counts as in vivo, BALB/c mice. The conditions noted are these: one day after i.v. injection of 200,000 cells per mouse in immunized mice.
For another assay, the system named is G121 TCR. In words: FACS detection of serum antibodies to G121 TCR in immunized mice. It counts as in vivo, BALB/c mice. To be noted: G121 cells incubated with serum dilution, then FITC-labeled anti-mouse Fcgamma antibody.
The test system of assay [4] is macrophages presenting Ag85b derived epitopes. It counts as cell-based, C57BL/6 mice.
The subject of assay [5] is NPM-ALK tumor cells (R80 NPM-ALK cells, H-2b-restricted). In words: Growth of NPM-ALK tumor in mice preimmunized with peptide on alum. To be noted: 50 μg peptide on alum, 4 times at 10-day intervals, before s.c. inoculation of 2×10^6 tumor cells; difference at day 20 p<0.008 (Mann-Whitney U test). It counts as in vivo, C57BL/6 mice.
Assay [6] deals with ALK-specific CD4+ T cells. In words: Activation of ALK-specific CD4+ T cells.

For “AHGSEPCIIHRGKPF (Der p2 amino acids 21-35 with mutation c21A) [SEQ ID NO:4, p21-35 peptide with cysteine in P(-4) substituted by alanine]”, the “reduction of the proliferative response of the specific T cell clone” value in [1] came to 70%.
As to “CAVY YCAVPDPDA FDI (CAVYYCAVPDPDAFDI; amino acids 111-125 of VH of human anti-factor VIII antibody BO2C11 preceded by cyteine) [SEQ ID NO:11]”, the “antibodies to the peptide of SEQ ID 10 (direct binding ELISA)” value in assay [2] is “High concentrations of antibodies”. Besides, the “antibodies to the BO2C11 antibody (direct binding ELISA)” value in the assay on BO2C11 antibody is recorded as “High concentrations of antibodies”. Further, in [3], the “B cells expressing the transgenic BCR in circulation, spleen or bone marrow (FACS, anti-human Fc-gamma antibody)” value is reported as “no B cells expressing the transgenic BCR”.
Take “CGG WTGPGAGPR (CGGWTGPGAGPR; amino acids 1544-1555 of ALK protein preceded by cysteine) [SEQ ID NO:15, ALK peptide with a single cysteine added at position 1544]”: in the assay on CD4+ T cells, the “proliferation rate of CD4+ T cells (incorporation of tritiated thymidine)” value is on record as “significantly increased”.
For the substance “CQTA VYFCASSER TGG (CQTAVYFCASSERTGG; amino acids 103-117 of VH of anti-Der p2 CD4+ T-cell clone G121 preceded by cysteine) [SEQ ID NO:13]”, the “residual CFSE-labeled G121 cells in peripheral blood or spleen (FACS)” value with G121 CD4+ T cell clone is “no residual G121 cells”. Besides, in the assay on G121 TCR, the “antibodies to G121 TCR in serum of immunized mice (FACS)” value is reported as “contains antibodies to G121 TCR”.
As to CSWE YWGAQLNAM [SEQ ID NO:7], the “macrophage lysis (51Cr release)” value in [4] is “significant degree of macrophage lysis”.
For the substance “YCTQDPDVINTA (ALK-epitope) [SEQ ID NO:5]”, in assay [5], the “tumor growth in preimmunized mice versus control group not preimmunized” value is “very much reduced”. Also, the “activation of ALK-specific (class II-restricted) CD4+ T cells” value in [6] is given as “boost the activation; also recorded: increased activation properties”.
Take “YWGAQLNAM [SEQ ID NO:6, reference compound]”: in [4], the “macrophage lysis (51Cr release)” value is “not”.
